Test results from patent US9108902B2, “Deuterated 2-amino-3-hydroxypropanoic acid derivatives” (Concert Pharmaceuticals, Inc., priority 2008, dated 2015).
Read-outs that look alike come from different tables or passages of the source.

Columns and labels:
[1] = Pharmacokinetic study in chimps after oral and intravenous co-dosing: plasma levels by LC-MS/MS; type: in vivo; details: for Cmax / AUC(0-t): plasma, 50 mg, co-administered 1:1; for AUC(0-t): read-out: AUC(0-24)
Description: (§1) A 1:1 mixture of the two compounds was then prepared containing a final concentration of 1 mg/mL of each compound and the mixture was then sterile filtered through a 0.2-μm filter.
Two chimps (one male and one female) were used in each of the oral and intravenous studies. Animals were fasted overnight prior to administration of compounds. All animals were sedated with ketamine (approximately 10 mg/kg) and/or telazol (approximately 5 mg/kg) prior to dosing. Intravenous administration was achieved by IV infusion of 50 mg of each compound (50 mL total dosing solution) over 30 minutes. Oral administration was achieved by oral gavage of a single 50 mg dose of each compound (50 mL total dosing solution). Blood samples (4.5 mL) were collected from the dosed chimps at various times prior to and after dosing. For intravenous administrations blood samples were collected at 0 min (preinfusion), 15 min, 29.5 min (immediately before the end of the infusion), then 6, 15, 30 and 45 min, and 1, 2, 4, 6, 8, 10, 12 and 24 hr after the infusion is stopped. For oral administrations, blood samples were collected at 0 min (predose), 15 and 30 min, and 1, 1.5, 2, 4, 6, 8, 10 and 12 hr postdose.
Blood samples were placed in tubes containing sodium heparin, mixed and stored on ice until centrifuged. Within 30 minutes of collection, plasma was isolated by centrifuging the blood samples and dividing the resulting plasma (approx. 2 ml) between two 96-deepwell plates. Each plate was sealed and stored at −70° C. until further analysis by LC-MS/MS using an Applied Bio-systems API 4000 mass spectrometer.
(§2) Samples were analyzed by LC-MS/MS using an Applied Bio-systems API 4000 mass spectrometer.

[2] = Pharmacokinetic study in chimps after oral and intravenous co-dosing: unmetabolized compound in urine; type: in vivo; details: both sexes, chimpanzee, 50 mg of each compound co-administered, average of chimps, urine collected 24 hours post-dose, read-out: Unmetabolized Compound Found in Urine
Description: as §1
Two chimps (one male and one female) were used in each of the oral and intravenous studies. Animals were fasted overnight prior to administration of compounds. All animals were sedated with ketamine (approximately 10 mg/kg) and/or telazol (approximately 5 mg/kg) prior to dosing. Intravenous administration was achieved by IV infusion of 50 mg of each compound (50 mL total dosing solution) over 30 minutes. Oral administration was achieved by oral gavage of a single 50 mg dose of each compound (50 mL total dosing solution). Blood samples (4.5 mL) were collected from the dosed chimps at various times prior to and after dosing.
Urine was collected for 24 hours post-dose for each test animal and stored on ice. Total volume was measured and an aliquot was stored at −70° C. until further analysis
as §2

[3] = iv, Chimp 1, IV infusion 50 mg of each compound over 30 min
[4] = iv, Chimp 2, IV infusion 50 mg of each compound over 30 min
[5] = po, Chimp 3, PO gavage single 50 mg dose of each compound
[6] = po, Chimp 4, PO gavage single 50 mg dose of each compound
[7] = following either intravenous or oral administration to chimps

## COC[C@@H](NC(C)=O)C(=O)NCc1ccccc1 [Lacosamide, 2(R)-acetamido-N-benzyl-3-methoxypropionamide, reference compound]
[1]; [3]
  Cmax: 4770 ng/mL
  AUC(0-t): 27600 ng·h/mL
[1]; [4]
  Cmax: 1560 ng/mL
  AUC(0-t): 23000 ng·h/mL
[1]; [5]
  Cmax: 1370 ng/mL
  AUC(0-t): 20400 ng·h/mL
[1]; [6]
  Cmax: 1090 ng/mL
  AUC(0-t): 15900 ng·h/mL
[2]; IV
  concentration at 24 h: 9520 ng/mL
[2]; PO
  concentration at 24 h: 2720 ng/mL

## [2H]C([2H])([2H])OC[C@@H](NC(=O)C([2H])([2H])[2H])C(=O)NCc1ccccc1 [Compound 120, (R)-2-(Acetamido-d3)—N-benzyl-3-(methoxy-d3)propanamide]
[1]; [7]
  AUC compared with lacosamide: higher
  Cmax compared with lacosamide: higher
[1]; [3]
  Cmax: 5280 ng/mL
  AUC(0-t): 31300 ng·h/mL
[1]; [4]
  Cmax: 1690 ng/mL
  AUC(0-t): 25400 ng·h/mL
[1]; [5]
  Cmax: 1540 ng/mL
  AUC(0-t): 23100 ng·h/mL
[1]; [6]
  Cmax: 1180 ng/mL
  AUC(0-t): 18000 ng·h/mL
[2]; IV
  concentration at 24 h: 11000 ng/mL
[2]; PO
  concentration at 24 h: 3200 ng/mL
